Experimental data from patent US11882827B2, “Agricultural mixtures comprising carboxamide compound” (BASF AGROCHEMICAL PRODUCTS B.V., priority 2013, dated 2024).
Like-named read-outs stand apart in the source and are kept apart here.

Assays:
Assay type in all cases: cell-based
Conditions in all cases: single active, 7 days after inoculation
[1] = system: Pyricularia oryzae
[2] = system: Septoria tritici; experiment: Microtest, activity against leaf blotch on wheat caused by Septoria tritici
[3] = system: Microdochium nivale; experiment: Microtest, activity against Microdochium nivale
[4] = system: Rhizoctonia solani; experiment: Microtest, activity against Rhizoctonia solani
[5] = system: Pyrenophora teres; experiment: Microtest, activity against Pyrenophora teres
[6] = system: Leptosphaeria nodorum; experiment: Microtest, activity against wheat leaf spots caused by Leptosphaeria nodorum

Fc1ccc([C@]2(Cn3cncn3)O[C@H]2c2ccccc2Cl)cc1 [Epoxiconazol]
Observed efficacy ([1]; 0.063 ppm): 1 | Observed efficacy ([1]; 0.25 ppm): 28 | Observed efficacy ([2]; 0.016 ppm): 7 | Observed efficacy ([3]; 0.004 ppm): 8 | Observed efficacy ([3]; 0.016 ppm): 29 | Observed efficacy ([4]; 0.001 ppm): 0 | Observed efficacy ([4]; 0.004 ppm): 0 | Observed efficacy ([4]; 0.016 ppm): 24 | Observed efficacy ([5]; 0.016 ppm): 0

COCC(=O)N(c1c(C)cccc1C)C(C)C(=O)OC (centres unmarked) [Metalaxyl]
Observed efficacy ([2]; 1 ppm): 5 | Observed efficacy ([2]; 4 ppm): 5

COC(=O)N(OC)c1ccccc1COc1ccn(-c2ccc(Cl)cc2)n1 [Pyraclostrobin]
Observed efficacy ([6]; 0.25 ppm): 72 | Observed efficacy ([5]; 0.016 ppm): 34

CC1(C)CCC(=Cc2ccc(Cl)cc2)C1(O)Cn1cncn1 (centres unmarked) [Triticonazol]
Observed efficacy ([2]; 0.063 ppm): 5

CN(C(=O)c1ccccc1)c1cccc(C(=O)Nc2c(Br)cc(C(F)(C(F)(F)F)C(F)(F)F)cc2C(F)(F)F)c1F [carboxamide compound of formula I]
Observed efficacy ([2]; 63 ppm): 11 | Observed efficacy ([6]; 4 ppm): 1 | Observed efficacy ([5]; 63 ppm): 20
